Results reported in patent EP0031561B1, “A rectally administered suppository comprising a drug and an adjuvant” (Merck & Co., Inc., priority 1979, dated 1981).
Blank lines part the entries; values can stand above or below the molecule they belong to.

Columns and labels:
[1] = dog, in vivo
Protocol: Four male beagle dogs weighing 9.5-11 kg are used and are fasted for two days prior to experimentation. Witepsol H-15 is used as an excipient to prepare the suppository formulation of cefmetazole. Microenema formulations are prepared with aqueous 0.02M phosphate buffer with a final pH of 7.4. Either a 1 g suppository or a 1 ml microenema is given to each dog. The formulations may contain varying amounts of adjuvant. Blood samples are taken from the foreleg vein at predetermined sampling times after dosing. Blood samples are heparinized and centrifuged at 3,000 rpm for 10 minutes. The concentration of cefmetazole in the plasma of the dogs is analyzed as a function of time using plasma aliquots for the assay of cefmetazole.

[2] = in situ perfusion method of the rectum (perfusate recirculated through the rat rectum; drug remaining in the perfusate)
Protocol: In this experiment, the amount of remaining theophylline, originally at a concentration of about 200 mg/ml, in aqueous solution and continually recirculated or perfused to the rectal compartment of the rat, at the end of one hour, is shown as the lower plot for studies carried out in the presence of 0.2% sodium salicylate, is shown as the upper plot.
A second cannula is inserted through the anus 1 cm inside the rectum and secured by ligation. Thus, about 2 cm of the rectum is exposed to the perfusate. The perfustate (6 ml) is circulated at a rate of 2 ml/min at 38°C. As perfustate, 1/15 M-phosphate buffer solutions are used and the ionic strength of the perfusate is adjusted to 0.75 with sodiumchloride as necessary. […] The amount of drug remaining in the perfusate is analyzed as a function of time by appropriate methods, e.g., by high-pressure liquid chromatography.
A second cannula is inserted through the anus 1 cm. inside the rectum and secured by ligation. Thus, about 2 cm of the rectum is exposed to the perfusate. The perfusate (6 ml) is circulated at a rate of 2 ml/min at 38°C. As perfusate, 1/15 M-phosphate buffer solutions are used and the ionic strength of the perfusate is adjusted to 0.75 with sodium chloride as necessary. […] The amount of drug remaining in the perfusate is analyzed as a function of time by appropriate methods, e.g. by high-pressure liquid chromatography.

- bioavailability, suppository formulations versus microenema formulations [1]: greater bioavailability
- rectal absorption of cefmetazole [1]: significantly enhanced
Structure (SMILES): CO[C@@]1(NC(=O)CSCC#N)C(=O)N2C(C(=O)O)=C(CSc3nnnn3C)CS[C@@H]21 [cefmetazole, Cefmetazole]

Structure (SMILES): O=C(O)c1cc(O)ccc1O [gentisic acid]
- adjuvant effect on the rectal absorption ([2]; Figure 4 (theophylline)): evident

Structure (SMILES): Cn1c(=O)c2[nH]cnc2n(C)c1=O [theophylline, 3,7-Dihydro-1,3-dimethyl-1H-purine-2,6-dione]
- effect of the salicylate on the rate of absorption of theophylline from the rectal compartment ([2]; Figure 1, theophylline about 200 mg/ml aqueous solution, amount remaining at end of one hour, 0.2% sodium salicylate, effect greatest below pH 5.5 and above pH 7.5): marked effect
